US20240025919A1, “AZA-TETRACYCLIC OXAZEPINE COMPOUNDS AND USES THEREOF” (Genentech, Inc., priority 2022, published 2024)

How the values were obtained:
KRAS WT = KRAS WT (Homo sapiens (Human), UniProt P01116); experiment: KRAS WT Biochemical Assay, BODIPY-GDP Exchange TR-FRET (Example 501; 3 nM KRAS WT, 3 nM SOS1, 60-minute incubation); details: read-out: KRas HTRF IC50
Summary of the method: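 SOS1-mediated exchange assay: 3 nM biotin-KRAS WT with terbium-streptavidin, started with 3 nM SOS1 and 300 nM BODIPY-GDP, HEPES pH 7.5 with MgCl2. TR-FRET (520/490 nm) read after 60 min; normalized to DMSO and full-inhibition control, IC50 from 4-parameter Hill fit.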

KRAS G12D = KRAS G12D (Homo sapiens (Human), UniProt P01116, G12D); experiment: KRAS G12D LoEnz Biochemical Assay, BODIPY-GDP Exchange TR-FRET (SOS1-mediated nucleotide exchange); details: read-out: KRas (G12D) GDP HTRF IC50
Sequence of KRAS G12D (P01116-2 other isoform, or with tags, fused parts or gaps G12D): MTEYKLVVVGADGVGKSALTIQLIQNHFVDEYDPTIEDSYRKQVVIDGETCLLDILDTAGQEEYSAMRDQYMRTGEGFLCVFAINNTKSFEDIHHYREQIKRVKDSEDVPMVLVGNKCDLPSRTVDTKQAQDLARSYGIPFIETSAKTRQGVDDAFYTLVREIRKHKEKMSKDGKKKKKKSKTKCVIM

Sequence of KRAS WT (P01116-2 other isoform, or with tags, fused parts or gaps): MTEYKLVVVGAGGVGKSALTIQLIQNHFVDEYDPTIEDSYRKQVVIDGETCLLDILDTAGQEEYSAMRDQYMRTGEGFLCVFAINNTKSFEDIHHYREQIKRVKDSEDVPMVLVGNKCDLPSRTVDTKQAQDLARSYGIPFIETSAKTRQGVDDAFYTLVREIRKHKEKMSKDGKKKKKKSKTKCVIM

Cc1cc(N)c(F)c(-c2nc3c4c(nc(OC[C@@]56CCCN5C[C@H](F)C6)nc4c2F)N2C[C@H]4CC[C@H](N4)[C@H]2[C@H](C)O3)c1CC(F)(F)F [Compound 182, 2-Fluoro-3-((5S,5aS,6S,9R)-1-fluoro-12-(((2R,7aS)-2-fluorotetrahydro-1H-pyrrolizin-7°(5H)-yl)methoxy)-5-methyl-5°,6,7,8,9,10-hexahydro-5H-4-oxa-3,10°,11,13,14-pentaaza-6,9-methanonaphtho[1,8-ab]heptalen-2-yl)-5-methyl-4-(2,2,2-trifluoroethyl)aniline]
IC50 (KRAS WT): 33.9 nM
IC50 (KRAS G12D): 0.269 nM

C[C@@H]1Oc2nc(-c3cc(N)c(F)c(F)c3CC(F)(F)F)c(F)c3nc(OC[C@@]45CCCN4C[C@H](F)C5)nc(c23)N2C[C@H]3CC[C@H](N3)[C@@H]12 [Compound 183, 2,3-Difluoro-5-((5S,5aS,6S,9R)-1-fluoro-12-(((2R,7aS)-2-fluorotetrahydro-1H-pyrrolizin-7a(5H)-yl)methoxy)-5-methyl-5a,6,7,8,9,10-hexahydro-5H-4-oxa-3,10a,11,13,14-pentaaza-6,9-methanonaphtho[1,8-ab]heptalene-2-yl)-4-(2,2,2-trifluoroethyl)aniline]
IC50 (KRAS WT): 4.46 nM
IC50 (KRAS G12D): 0.21 nM

C[C@@H]1Oc2nc(-c3cc(N)c(=O)n(C)c3C(F)(F)F)c(F)c3nc(OC[C@@]45CCCN4C[C@H](F)C5)nc(c23)N2C[C@H]3CC[C@H](N3)[C@@H]12 [Compound 184, 3-Amino-5-((5S,5aS,6S,9R)-1-fluoro-12-(((2R,7aS)-2-fluorotetrahydro-1H-pyrrolizin-7a(5H)-yl)methoxy)-5-methyl-5a,6,7,8,9,10-hexahydro-5H-4-oxa-3,10a,11,13,14-pentaaza-6,9-methanonaphtho[1,8-ab]heptalene-2-yl)-1-methyl-6-(trifluoromethyl)pyridin-2(1H)-one]
IC50 (KRAS WT): 393 nM
IC50 (KRAS G12D): 1.98 nM

Cc1nc(N)cc(-c2nc3c4c(nc(OC[C@@]56CCCN5C[C@H](F)C6)nc4c2F)N2C[C@H]4CC[C@H](N4)[C@H]2[C@H](C)O3)c1CC(F)(F)F [Compound 185, 4-((5S,5aS,6S,9R)-1-Fluoro-12-(((2R,7aS)-2-fluorotetrahydro-1H-pyrrolizin-7a(5H)-yl)methoxy)-5-methyl-5a,6,7,8,9,10-hexahydro-5H-4-oxa-3,10a,11,13,14-pentaaza-6,9-methanonaphtho[1,8-ab]heptalene-2-yl)-6-methyl-5-(2,2,2-trifluoromethyl)pyridin-2-amine]
IC50 (KRAS WT): 107 nM
IC50 (KRAS G12D): 1.1 nM

C[C@@H]1Oc2nc(-c3cc(N)c(F)c(Cl)c3CC(F)F)c(F)c3nc(OC[C@@]45CCCN4C[C@H](F)C5)nc(c23)N2C[C@H]3CC[C@H](N3)[C@@H]12 [Compound 186, 3-Chloro-4-(2,2-difluoroethyl)-2-fluoro-5-((5S,5aS,6S,9R)-1-fluoro-12-(((2R,7aS)-2-fluorotetrahydro-1H-pyrrolizin-7a(5H)-yl)methoxy)-5-methyl-5a,6,7,8,9,10-hexahydro-5H-4-oxa-3,10a,11,13,14-pentaaza-6,9-methanonaphtho[1,8-ab]heptalene-2-yl)aniline]
IC50 (KRAS WT): 5.61 nM
IC50 (KRAS G12D): 0.1 nM

C[C@@H]1Oc2nc(-c3cc(N)c(F)cc3CC(F)F)c(F)c3nc(OC[C@@]45CCCN4C[C@H](F)C5)nc(c23)N2C[C@H]3CC[C@H](N3)[C@@H]12 [Compound 187, 4-(2,2-Difluoroethyl)-2-fluoro-5-((5S,5aS,6S,9R)-1-fluoro-12-(((2R,7aS)-2-fluorotetrahydro-1H-pyrrolizin-7a(5H)-yl)methoxy)-5-methyl-5a,6,7,8,9,10-hexahydro-5H-4-oxa-3,10a,11,13,14-pentaaza-6,9-methanonaphtho[1,8-ab]heptalene-2-yl)aniline]
IC50 (KRAS WT): 163 nM
IC50 (KRAS G12D): 0.51 nM

Cc1nc(N)cc(-c2nc3c4c(nc(OC[C@@]56CCCN5C[C@H](F)C6)nc4c2F)N2C[C@H]4CC[C@H](N4)[C@H]2[C@H](C)O3)c1OC(F)F [Compound 188, 5-(Difluoromethoxy)-4-((5S,5aS,6S,9R)-1-fluoro-12-(((2R,7aS)-2-fluorotetrahydro-1H-pyrrolizin-7a(5H)-yl)methoxy)-5-methyl-5a,6,7,8,9,10-hexahydro-5H-4-oxa-3,10a,11,13,14-pentaaza-6,9-methanonaphtho[1,8-ab]heptalene-2-yl)-6-methylpyridin-2-amine]
IC50 (KRAS WT): 225 nM
IC50 (KRAS G12D): 1.26 nM

Cc1nc(N)cc(-c2nc3c4c(nc(OC[C@@]56CCCN5C[C@H](F)C6)nc4c2F)N2C[C@H]4CC[C@H](N4)[C@H]2[C@H](C)O3)c1CC(F)F [Compound 189, 5-(2,2-Difluoroethyl)-4-((5S,5aS,6S,9R)-1-fluoro-12-(((2R,7aS)-2-fluorotetrahydro-1H-pyrrolizin-7a(5H)-yl)methoxy)-5-methyl-5a,6,7,8,9,10-hexahydro-5H-4-oxa-3,10a,11,13,14-pentaaza-6,9-methanonaphtho[1,8-ab]heptalene-2-yl)-6-methylpyridin-2-amine]
IC50 (KRAS WT): 252 nM
IC50 (KRAS G12D): 2.31 nM

C[C@@H]1Oc2nc(-c3cc(N)c(F)c(F)c3CC(F)F)c(F)c3nc(OC[C@@]45CCCN4C[C@H](F)C5)nc(c23)N2C[C@H]3CC[C@H](N3)[C@@H]12 [Compound 190, 4-(2,2-Difluoroethyl)-2,3-difluoro-5-((5S,5aS,6S,9R)-1-fluoro-12-(((2R,7aS)-2-fluorotetrahydro-1H-pyrrolizin-7a(5H)-yl)methoxy)-5-methyl-5a,6,7,8,9,10-hexahydro-5H-4-oxa-3,10a,11,13,14-pentaaza-6,9-methanonaphtho[1,8-ab]heptalene-2-yl)aniline]
IC50 (KRAS WT): 10.1 nM
IC50 (KRAS G12D): 0.11 nM

Cc1c(F)c(N)nc(-c2nc3c4c(nc(OC[C@@]56CCCN5C[C@H](F)C6)nc4c2F)N2C[C@H]4CC[C@H](N4)[C@H]2[C@H](C)O3)c1C(F)(F)F [Compound 191, 3-Fluoro-6-((5S,5aS,6S,9R)-1-fluoro-12-(((2R,7aS)-2-fluorotetrahydro-1H-pyrrolizin-7a(5H)-yl)methoxy)-5-methyl-5a,6,7,8,9,10-hexahydro-5H-4-oxa-3,10a,11,13,14-pentaaza-6,9-methanonaphtho[1,8-ab]heptalen-2-yl)-4-methyl-5-(trifluoromethyl)pyridin-2-amine]
IC50 (KRAS WT): 91.1 nM
IC50 (KRAS G12D): 0.46 nM

C[C@@H]1Oc2nc(N(C)c3ccc(F)c(N)c3)c(F)c3nc(OC[C@@]45CCCN4C[C@H](F)C5)nc(c23)N2C[C@H]3CC[C@H](N3)[C@@H]12 [Compound 193, 4-fluoro-Ni-((5S,5aS,6S,9R)-1-fluoro-12-(((2R,7aS)-2-fluorotetrahydro-1H-pyrrolizin-7a(5H)-yl)methoxy)-5-methyl-5a,6,7,8,9,10-hexahydro-5H-4-oxa-3,10a,11,13,14-pentaaza-6,9-methanonaphtho[1,8-ab]heptalen-2-yl)-Ni-methylbenzene-1,3-diamine]
IC50 (KRAS WT): 128000 nM
IC50 (KRAS G12D): 32800 nM

Cc1nc(N)c(F)c(-c2nc3c4c(nc(OC[C@@]56CCCN5C[C@H](F)C6)nc4c2F)N2C[C@H]4CC[C@H](N4)[C@H]2[C@H](C)O3)c1C(F)(F)F [Compound 194, 3-Fluoro-4-((5S,5aS,6S,9R)-1-fluoro-12-(((2R,7aS)-2-fluorotetrahydro-1H-pyrrolizin-7a(5H)-yl)methoxy)-5-methyl-5a,6,7,8,9,10-hexahydro-5H-4-oxa-3,10a,11,13,14-pentaaza-6,9-methanonaphtho[1,8-ab]heptalen-2-yl)-6-methyl-5-(trifluoromethyl)pyridin-2-amine]
IC50 (KRAS WT): 28.9 nM
IC50 (KRAS G12D): 0.42 nM

Cc1c(F)c(N)c(F)c(-c2nc3c4c(nc(OC[C@@]56CCCN5C[C@H](F)C6)nc4c2F)N2C[C@H]4CC[C@H](N4)[C@H]2[C@H](C)O3)c1Cl [Compound 195, 4-Chloro-2,6-difluoro-3-((5S,5aS,6S,9R)-1-fluoro-12-(((2R,7aS)-2-fluorotetrahydro-1H-pyrrolizin-7a(5H)-yl)methoxy)-5-methyl-5a,6,7,8,9,10-hexahydro-5H-4-oxa-3,10a,11,13,14-pentaaza-6,9-methanonaphtho[1,8-ab]heptalen-2-yl)-5-methylaniline]
IC50 (KRAS WT): 108 nM
IC50 (KRAS G12D): 0.44 nM

C[C@@H]1Oc2nc(-c3c(F)ccc4cc[nH]c(=O)c34)c(F)c3nc(OC[C@@]45CCCN4C[C@H](F)C5)nc(c23)N2C[C@H]3CC[C@H](N3)[C@@H]12 [Compound 196, 7-Fluoro-8-((5S,5aS,6S,9R)-1-fluoro-12-(((2R,7aS)-2-fluorotetrahydro-1H-pyrrolizin-7a(5H)-yl)methoxy)-5-methyl-5a,6,7,8,9,10-hexahydro-5H-4-oxa-3,10a,11,13,14-pentaaza-6,9-methanonaphtho[1,8-ab]heptalen-2-yl)isoquinolin-1(2H)-one]
IC50 (KRAS WT): 20100 nM
IC50 (KRAS G12D): 248 nM

Cc1nc(N)c(Cl)c(-c2nc3c4c(nc(OC[C@@]56CCCN5C[C@H](F)C6)nc4c2F)N2C[C@H]4CC[C@H](N4)[C@H]2[C@H](C)O3)c1C(F)(F)F [Compound 197, 3-Chloro-4-((5S,5aS,6S,9R)-1-fluoro-12-(((2R,7aS)-2-fluorotetrahydro-1H-pyrrolizin-7a(5H)-yl)methoxy)-5-methyl-5a,6,7,8,9,10-hexahydro-5H-4-oxa-3,10a,11,13,14-pentaaza-6,9-methanonaphtho[1,8-ab]heptalen-2-yl)-6-methyl-5-(trifluoromethyl)pyridin-2-amine]
IC50 (KRAS WT): 59.8 nM
IC50 (KRAS G12D): 0.46 nM

Cc1nc(N)c(C)c(-c2nc3c4c(nc(OC[C@@]56CCCN5C[C@H](F)C6)nc4c2F)N2C[C@H]4CC[C@H](N4)[C@H]2[C@H](C)O3)c1C(F)(F)F [Compound 198, 4-((5S,5aS,6S,9R)-1-Fluoro-12-(((2R,7aS)-2-fluorotetrahydro-1H-pyrrolizin-7a(5H)-yl)methoxy)-5-methyl-5a,6,7,8,9,10-hexahydro-5H-4-oxa-3,10a,11,13,14-pentaaza-6,9-methanonaphtho[1,8-ab]heptalen-2-yl)-3,6-dimethyl-5-(trifluoromethyl)pyridin-2-amine]
IC50 (KRAS WT): 85.8 nM
IC50 (KRAS G12D): 0.62 nM
